In ChEMBL document CHEMBL4004849, “Tetrazolylmethyl quinolines: Design, docking studies, synthesis, anticancer and antifungal analyses” (2017):
Converted amounts (≈) assume the structure as drawn. The source made the active and inactive calls. The rule behind the calls is not given here.

What was measured:
Format in all cases: functional
[1] = tested on: Candida albicans; assay: Antifungal activity against Candida albicans after 24 hrs by serial dilution method
[2] = tested on: IGROV-1; assay: Growth inhibition of human IGROV1 cells at 10^-5 M incubated for 48 hrs by sulforhodamine B assay relative to control
[3] = tested on: MOLT-4; assay: Growth inhibition of human MOLT4 cells at 10^-5 M incubated for 48 hrs by sulforhodamine B assay relative to control
[4] = tested on: NCI-H23; assay: Growth inhibition of human NCI-H23 cells at 10^-5 M incubated for 48 hrs by sulforhodamine B assay relative to control
[5] = tested on: SR; assay: Growth inhibition of human SR cells at 10^-5 M incubated for 48 hrs by sulforhodamine B assay relative to control
[6] = tested on: EKVX; assay: Growth inhibition of human EKVX cells at 10^-5 M incubated for 48 hrs by sulforhodamine B assay relative to control
[7] = tested on: OVCAR-4; assay: Growth inhibition of human OVCAR4 cells at 10^-5 M incubated for 48 hrs by sulforhodamine B assay relative to control
[8] = tested on: OVCAR-5; assay: Growth inhibition of human OVCAR5 cells at 10^-5 M incubated for 48 hrs by sulforhodamine B assay relative to control
[9] = tested on: MDA-MB-468; assay: Growth inhibition of human MDA-MB-468 cells at 10^-5 M incubated for 48 hrs by sulforhodamine B assay relative to control
[10] = tested on: HCC 2998; assay: Growth inhibition of human HCC2998 cells at 10^-5 M incubated for 48 hrs by sulforhodamine B assay relative to control
[11] = tested on: SK-OV-3; assay: Growth inhibition of human SKOV3 cells at 10^-5 M incubated for 48 hrs by sulforhodamine B assay relative to control
[12] = tested on: MDA-MB-435; assay: Growth inhibition of human MDA-MB-435 cells at 10^-5 M incubated for 48 hrs by sulforhodamine B assay relative to control
[13] = tested on: Aspergillus fumigatus; assay: Antifungal activity against Aspergillus fumigatus at 100 ug/ml by disc diffusion method; settings: read-out: IZ
[14] = tested on: OVCAR-8; assay: Growth inhibition of human OVCAR8 cells at 10^-5 M incubated for 48 hrs by sulforhodamine B assay relative to control
[15] = tested on: SN12C; assay: Growth inhibition of human SN12C cells at 10^-5 M incubated for 48 hrs by sulforhodamine B assay relative to control
[16] = tested on: MCF7; assay: Growth inhibition of human MCF7 cells at 10^-5 M incubated for 48 hrs by sulforhodamine B assay relative to control
[17] = tested on: MDA-MB-231; assay: Growth inhibition of human MDA-MB-231/ATCC cells at 10^-5 M incubated for 48 hrs by sulforhodamine B assay relative to control
[18] = tested on: LOX IMVI; assay: Growth inhibition of human LOXIMVI cells at 10^-5 M incubated for 48 hrs by sulforhodamine B assay relative to control
[19] = tested on: UACC-257; assay: Growth inhibition of human UACC257 cells at 10^-5 M incubated for 48 hrs by sulforhodamine B assay relative to control
[20] = tested on: HL-60(TB); assay: Growth inhibition of human HL-60(TB) cells at 10^-5 M incubated for 48 hrs by sulforhodamine B assay relative to control
[21] = tested on: 786-0; assay: Growth inhibition of human 786-0 cells at 10^-5 M incubated for 48 hrs by sulforhodamine B assay relative to control
[22] = tested on: UO-31; assay: Growth inhibition of human UO31 cells at 10^-5 M incubated for 48 hrs by sulforhodamine B assay relative to control
[23] = tested on: SNB-19; assay: Growth inhibition of human SNB19 cells at 10^-5 M incubated for 48 hrs by sulforhodamine B assay relative to control
[24] = tested on: SK-MEL-28; assay: Growth inhibition of human SK-MEL-28 cells at 10^-5 M incubated for 48 hrs by sulforhodamine B assay relative to control
[25] = tested on: SF-295; assay: Growth inhibition of human SF295 cells at 10^-5 M incubated for 48 hrs by sulforhodamine B assay relative to control
[26] = tested on: UACC-62; assay: Growth inhibition of human UACC62 cells at 10^-5 M incubated for 48 hrs by sulforhodamine B assay relative to control
[27] = tested on: SK-MEL-2; assay: Growth inhibition of human SK-MEL-2 cells at 10^-5 M incubated for 48 hrs by sulforhodamine B assay relative to control
[28] = tested on: BT-549; assay: Growth inhibition of human BT549 cells at 10^-5 M incubated for 48 hrs by sulforhodamine B assay relative to control
[29] = tested on: U-251; assay: Growth inhibition of human U251 cells at 10^-5 M incubated for 48 hrs by sulforhodamine B assay relative to control
[30] = tested on: Malme-3M; assay: Growth inhibition of human MALME-3M cells at 10^-5 M incubated for 48 hrs by sulforhodamine B assay relative to control
[31] = tested on: A549; assay: Growth inhibition of human A549/ATCC cells at 10^-5 M incubated for 48 hrs by sulforhodamine B assay relative to control
[32] = tested on: OVCAR-3; assay: Growth inhibition of human OVCAR3 cells at 10^-5 M incubated for 48 hrs by sulforhodamine B assay relative to control
[33] = tested on: NCI-H226; assay: Growth inhibition of human NCI-H226 cells at 10^-5 M incubated for 48 hrs by sulforhodamine B assay relative to control
[34] = tested on: Candida albicans; assay: Antifungal activity against Candida albicans at 100 ug/ml by disc diffusion method; settings: read-out: IZ
[35] = tested on: HCT-116; assay: Growth inhibition of human HCT116 cells at 10^-5 M incubated for 48 hrs by sulforhodamine B assay relative to control
[36] = tested on: NCI-H460; assay: Growth inhibition of human NCI-H460 cells at 10^-5 M incubated for 48 hrs by sulforhodamine B assay relative to control
[37] = tested on: RXF 393; assay: Growth inhibition of human RXF393 cells at 10^-5 M incubated for 48 hrs by sulforhodamine B assay relative to control
[38] = tested on: Aspergillus fumigatus; assay: Antifungal activity against Aspergillus fumigatus after 24 hrs by serial dilution method
[39] = tested on: SK-MEL-5; assay: Growth inhibition of human SK-MEL-5 cells at 10^-5 M incubated for 48 hrs by sulforhodamine B assay relative to control
[40] = tested on: K562; assay: Growth inhibition of human K562 cells at 10^-5 M incubated for 48 hrs by sulforhodamine B assay relative to control
[41] = tested on: NCI-H522; assay: Growth inhibition of human NCI-H522 cells at 10^-5 M incubated for 48 hrs by sulforhodamine B assay relative to control
[42] = tested on: M14; assay: Growth inhibition of human M14 cells at 10^-5 M incubated for 48 hrs by sulforhodamine B assay relative to control
[43] = tested on: KM12; assay: Growth inhibition of human KM12 cells at 10^-5 M incubated for 48 hrs by sulforhodamine B assay relative to control
[44] = tested on: ACHN; assay: Growth inhibition of human ACHN cells at 10^-5 M incubated for 48 hrs by sulforhodamine B assay relative to control
[45] = tested on: HCT-15; assay: Growth inhibition of human HCT15 cells at 10^-5 M incubated for 48 hrs by sulforhodamine B assay relative to control

Cc1ccc2nc(Cl)c(Cn3nnnc3Cc3ccccc3)cc2c1
MIC [1]: 25 mg/L (≈ 71.5 µM) | growth inhibition (GI) [2]: Active | growth inhibition (GI) [3]: Active | growth inhibition (GI) [4]: Active | growth inhibition (GI) [5]: Active | growth inhibition (GI) [6]: Active | growth inhibition (GI) [7]: Active | growth inhibition (GI) [8]: Active | growth inhibition (GI) [9]: Active | growth inhibition (GI) [10]: Active | growth inhibition (GI) [11]: Active | growth inhibition (GI) [12]: Active | zone of inhibition at 100 µg/mL [13]: 10 mm | growth inhibition (GI) [14]: Active | growth inhibition (GI) [15]: Active | growth inhibition (GI) [16]: Active | growth inhibition (GI) [17]: Active | growth inhibition (GI) [18]: Active | growth inhibition (GI) [19]: Active | growth inhibition (GI) [20]: Active | growth inhibition (GI) [21]: Active | growth inhibition (GI) [22]: Active | growth inhibition (GI) [23]: Active | growth inhibition (GI) [24]: Active | growth inhibition (GI) [25]: Active | growth inhibition (GI) [26]: Active | growth inhibition (GI) [27]: Active | growth inhibition (GI) [28]: Active | growth inhibition (GI) [29]: Active | growth inhibition (GI) [30]: Active | growth inhibition (GI) [31]: Active | growth inhibition (GI) [32]: Active | growth inhibition (GI) [33]: Active | zone of inhibition at 100 µg/mL [34]: 10 mm | growth inhibition (GI) [35]: Active | growth inhibition (GI) [36]: Active | growth inhibition (GI) [37]: Active | MIC [38]: 25 mg/L (≈ 71.5 µM) | growth inhibition (GI) [39]: Active | growth inhibition (GI) [40]: Active | growth inhibition (GI) [41]: Active | growth inhibition (GI) [42]: Active | growth inhibition (GI) [43]: Active | growth inhibition (GI) [44]: Active | growth inhibition (GI) [45]: Active

Fc1ccc2nc(Cl)c(Cn3nnc(Cc4ccccc4)n3)cc2c1
MIC [1]: 25 mg/L (≈ 70.7 µM) | growth inhibition (GI) [2]: Active | growth inhibition (GI) [3]: Active | growth inhibition (GI) [4]: Active | growth inhibition (GI) [5]: Active | growth inhibition (GI) [6]: Active | growth inhibition (GI) [7]: Active | growth inhibition (GI) [8]: Active | growth inhibition (GI) [9]: Active | growth inhibition (GI) [10]: Active | growth inhibition (GI) [11]: Active | growth inhibition (GI) [12]: Active | zone of inhibition at 100 µg/mL [13]: 15 mm | growth inhibition (GI) [14]: Active | growth inhibition (GI) [15]: Active | growth inhibition (GI) [16]: Active | growth inhibition (GI) [17]: Active | growth inhibition (GI) [18]: Active | growth inhibition (GI) [19]: Active | growth inhibition (GI) [20]: Active | growth inhibition (GI) [21]: Active | growth inhibition (GI) [22]: Active | growth inhibition (GI) [23]: Active | growth inhibition (GI) [24]: Active | growth inhibition (GI) [25]: Active | growth inhibition (GI) [26]: Active | growth inhibition (GI) [27]: Active | growth inhibition (GI) [28]: Active | growth inhibition (GI) [29]: Active | growth inhibition (GI) [30]: Active | growth inhibition (GI) [31]: Active | growth inhibition (GI) [32]: Active | growth inhibition (GI) [33]: Active | zone of inhibition at 100 µg/mL [34]: 12 mm | growth inhibition (GI) [35]: Active | growth inhibition (GI) [36]: Active | growth inhibition (GI) [37]: Active | MIC [38]: 25 mg/L (≈ 70.7 µM) | growth inhibition (GI) [39]: Active | growth inhibition (GI) [40]: Active | growth inhibition (GI) [41]: Active | growth inhibition (GI) [42]: Active | growth inhibition (GI) [43]: Active | growth inhibition (GI) [44]: Active | growth inhibition (GI) [45]: Active
